From patent US20160075653A1, “NEMATICIDAL N-(PHENYLCYCLOALKYL)CARBOXAMIDES AND N-(PHENYLCYCLOALKYL)THIOCARBOXAMIDES” (BAYER CROPSCIENCE AKTIENGESELLSCHAFT, priority 2013, published 2016)

Experiment: Measurement of log P values by HPLC on reversed phase columns (methods [a] pH 2.3, [b] pH 2.7, [c] pH 7.8)
Format: physicochemical
Details: HPLC on reversed phase column, method [b], pH 2.7
Protocol: Measurement of log P-Values:
Measurement of log P Values was Performed According EEC Directive 79/831 Annex V.A8 by HPLC (High Performance Liquid
Chromatography) on reversed phase columns with the following methods: ^[a] Measurement was done at pH 2.3 with 0.1% phosphoric acid and acetonitrile as eluent with a linear gradient from 10% acetonitrile to 95% acetonitrile. ^[b] measurement of LC-MS was done at pH 2.7 with 0.1% formic acid in water and with acetonitrile (contains 0.1% formic acid) as eluent with a linear gradient from 10% acetonitrile to 95% acetonitrile. ^[c] Measurement with LC-MS was done at pH 7.8 with 0.001 molar ammonium hydrogen carbonate solution in water as eluent with a linear gradient from 10% acetonitrile to 95% acetonitrile.
Calibration was done with linear alkan-2-ones (with 3 to 16 carbon atoms) with known log P-values (measurement of log P values using retention times with linear interpolation between successive alkanones). Lambda-max-values were determined using UV-spectra from 200 nm to 400 nm and the peak values of the chromatographic signals.

Compound	logP
O=C(N[C@@H]1CC[C@H]1c1cccc(F)c1C(F)(F)F)c1ccccc1Cl (relative stereo) [Compound 598]	3.50^[b]
O=C(N[C@@H]1CC[C@@H]1c1cccc(F)c1C(F)(F)F)c1ccccc1Br (relative stereo) [Compound 654]	3.30^[b]

Same assay, conditions: HPLC on reversed phase columns, method [b], pH 2.7

logP	Compound
2.84^[b]	CC(F)c1nn(C)cc1C(=O)NC1CCCC1c1ccc(F)c(F)c1 (mixture of isomers) [Example 126]
2.64^[b]	Cn1cc(C(=O)N[C@@H]2CCC[C@@H]2c2ccc(F)c(F)c2)c(C(F)F)n1 (relative stereo) [Example 52]
2.62^[b]	CC(F)c1nn(C)cc1C(=O)N[C@@H]1CCC[C@@H]1c1ccc(F)c(F)c1 (relative stereo) [Example 53]
2.78^[b]	CCOc1nn(C)cc1C(=O)N[C@@H]1CCC[C@@H]1c1ccc(F)c(F)c1 (relative stereo) [Example 54]
3.31^[b]	O=C(N[C@@H]1CCC[C@@H]1c1ccc(F)c(F)c1)c1ccccc1I (relative stereo) [Example 58]
3.06^[b]	Cc1occc1C(=O)N[C@@H]1CCC[C@@H]1c1ccc(F)c(F)c1 (relative stereo) [Example 59]
2.78^[b]	Cc1nocc1C(=O)N[C@@H]1CCC[C@H]1c1ccc(F)c(F)c1 (relative stereo) [Example 60]
2.69^[b]	Cc1nocc1C(=O)N[C@@H]1CCC[C@@H]1c1ccc(F)c(F)c1 (relative stereo) [Example 61]
1.67^[b]	Cc1ncccc1C(=O)N[C@@H]1CCC[C@@H]1c1ccc(F)c(F)c1 (relative stereo) [Example 62]
1.75^[b]	Cc1ncccc1C(=O)N[C@@H]1CCC[C@H]1c1ccc(F)c(F)c1 (relative stereo) [Example 63]
3.31^[b]	Cc1cccnc1C(=O)N[C@@H]1CCC[C@@H]1c1ccc(F)c(F)c1 (relative stereo) [Example 64]
2.15^[b]	Cc1ncncc1C(=O)N[C@@H]1CCC[C@@H]1c1ccc(F)c(F)c1 (relative stereo) [Example 65]
3.33^[b]	O=C(N[C@@H]1CCC[C@@H]1c1ccc(F)c(F)c1)c1ccccc1F (relative stereo) [Example 66]
3.35^[b]	Cc1cc(C(=O)N[C@@H]2CCC[C@@H]2c2ccc(F)c(F)c2)c(C)o1 (relative stereo) [Example 67]
2.76^[b]	O=C(N[C@@H]1CCC[C@@H]1c1ccc(F)c(F)c1)c1cccnc1F (relative stereo) [Example 68]
2.59^[b]	O=C(N[C@@H]1CCC[C@@H]1c1ccc(F)c(F)c1)c1ccncc1F (relative stereo) [Example 69]
3.39^[b]	Cc1ccsc1C(=O)N[C@@H]1CCC[C@@H]1c1ccc(F)c(F)c1 (relative stereo) [Example 70]
2.57^[b]	Cc1ncc(C(=O)N[C@@H]2CCC[C@@H]2c2ccc(F)c(F)c2)s1 (relative stereo) [Example 71]

logP	Compound
2.86^[b]	Cc1nnsc1C(=O)N[C@@H]1CCC[C@@H]1c1ccc(F)c(F)c1 (relative stereo) [Example 72]
3.04^[b]	N#Cc1ccccc1C(=O)N[C@@H]1CCC[C@@H]1c1ccc(F)c(F)c1 (relative stereo) [Example 73]
3.21^[b]	N#Cc1ncccc1C(=O)N[C@@H]1CCC[C@@H]1c1ccc(F)c(F)c1 (relative stereo) [Example 74]
3.39^[b]	COc1ccccc1C(=O)N[C@@H]1CCC[C@@H]1c1ccc(F)c(F)c1 (relative stereo) [Example 75]
2.64^[b]	COc1nn(C)cc1C(=O)N[C@@H]1CCC[C@@H]1c1ccc(F)c(F)c1 (relative stereo) [Example 76]
2.60^[b]	Cc1nn(C)c(F)c1C(=O)N[C@@H]1CCC[C@@H]1c1ccc(F)c(F)c1 (relative stereo) [Example 77]
3.29^[b]	COc1cscc1C(=O)N[C@@H]1CCC[C@@H]1c1ccc(F)c(F)c1 (relative stereo) [Example 78]
3.72^[b]	O=C(N[C@@H]1CCC[C@@H]1c1ccc(F)c(F)c1)c1sccc1Cl (relative stereo) [Example 80]
2.80^[b]	CCCc1nn(C)cc1C(=O)N[C@@H]1CCC[C@@H]1c1ccc(F)c(F)c1 (relative stereo) [Example 81]
2.92^[b]	CCc1nn(C)c(F)c1C(=O)N[C@@H]1CCC[C@@H]1c1ccc(F)c(F)c1 (relative stereo) [Example 83]
2.92^[b]	CCn1nc(C)c(C(=O)N[C@@H]2CCC[C@@H]2c2ccc(F)c(F)c2)c1F (relative stereo) [Example 84]
3.50^[b]	O=C(N[C@@H]1CCC[C@@H]1c1ccc(F)c(F)c1)c1ccccc1C(F)(F)F (relative stereo) [Example 88]
2.92^[b]	O=C(N[C@@H]1CCC[C@@H]1c1ccc(F)c(F)c1)c1cnccc1C(F)(F)F (relative stereo) [Example 89]
3.31^[b]	O=C(N[C@@H]1CCC[C@@H]1c1ccc(F)c(F)c1)c1ncccc1C(F)(F)F (relative stereo) [Example 90]
3.27^[b]	Cn1cc(C(=O)N[C@@H]2CCC[C@@H]2c2ccc(F)c(F)c2)c(C(F)(F)F)c1 (relative stereo) [Example 91]
2.98^[b]	Cn1cc(C(=O)N[C@@H]2CCC[C@@H]2c2ccc(F)c(F)c2)c(C(F)(F)F)n1 (relative stereo) [Example 92]
3.63^[b]	O=C(N[C@@H]1CCC[C@@H]1c1ccc(F)c(F)c1)c1sccc1C(F)(F)F (relative stereo) [Example 93]
3.35^[b]	O=C(N[C@@H]1CCC[C@@H]1c1ccc(F)c(F)c1)c1ccccc1Br (relative stereo) [Example 94]

The next lines start with the compound.

Compound	logP
O=C(N[C@@H]1CCC[C@@H]1c1ccc(F)c(F)c1)c1ccsc1I (relative stereo) [Compound 56]	3.29^[b]
COc1nn(C)cc1C(=O)N[C@@H]1C[C@H]1c1ccccc1 (relative stereo) [Example 41]	2.03^[b]
Cc1nn(C)c(F)c1C(=O)N[C@@H]1C[C@H]1c1ccccc1 (relative stereo) [Example 42]	1.99^[b]
CCOc1nn(C)cc1C(=O)N[C@@H]1C[C@H]1c1ccccc1 (relative stereo) [Example 43]	2.36^[b]
O=C(N[C@@H]1C[C@H]1c1ccccc1)c1ccccc1I (relative stereo) [Example 44]	2.93^[b]
O=C(N[C@@H]1C[C@H]1c1ccccc1)c1ccccc1Br (relative stereo) [Example 45]	2.79^[b]
O=C(N[C@@H]1C[C@H]1c1ccccc1)c1ccccc1Cl (relative stereo) [Example 46]	2.68^[b]
O=C(N[C@@H]1C[C@H]1c1ccccc1)c1c(Cl)cccc1Cl (relative stereo) [Example 47]	2.99^[b]
O=C(N[C@@H]1C[C@H]1c1ccccc1Cl)c1c(Cl)cccc1Cl (relative stereo) [Example 50]	3.32^[b]
O=C(N[C@@H]1C[C@H]1c1ccccc1Cl)c1ccccc1C(F)(F)F (relative stereo) [Example 51]	3.31^[b]
Cc1nc(C(F)(F)F)c(C(=O)N[C@@H]2CCC[C@@H]2c2ccc(F)c(F)c2)s1 (relative stereo) [Example 55]	3.19^[b]
O=C(N[C@@H]1CCC[C@@H]1c1ccc(F)c(F)c1)C1=C(C(F)(F)F)OCCS1 (relative stereo) [Example 57]	3.19^[b]
CC1=C(C(=O)N[C@@H]2CCC[C@@H]2c2ccc(F)c(F)c2)SCCO1 (relative stereo) [Example 79]	3.15^[b]
Cc1nn(C)c(Cl)c1C(=O)N[C@@H]1CCC[C@@H]1c1ccc(F)c(F)c1 (relative stereo) [Example 85]	2.82^[b]
CCCc1nn(C)c(F)c1C(=O)N[C@@H]1CCC[C@@H]1c1ccc(F)c(F)c1 (relative stereo) [Example 87]	3.25^[b]

Same assay, conditions: HPLC reversed phase, method [b] (pH 2.7)

Compound	logP
O=C(N[C@@H]1CCC[C@@H]1c1ccccc1F)c1ccc(I)s1 (relative stereo) [Compound 337]	3.70^[b]
O=C(N[C@@H]1CC[C@@H]1c1c(F)cccc1F)c1ncccc1Cl (relative stereo) [Compound 438]	2.73^[b]
O=C(N[C@@H]1CC[C@H]1c1ccc(F)cc1C(F)(F)F)c1ccccc1I (relative stereo) [Compound 502]	3.76^[b]
O=C(N[C@@H]1CC[C@@H]1c1ccccc1Cl)c1sccc1I (relative stereo) [Compound 546]	3.72^[b]
O=C(N[C@@H]1C[C@@H]1c1ccc(Cl)cc1Cl)c1ccccc1I (relative stereo) [Compound 578]	3.43^[b]
O=C(N[C@@H]1C[C@@H]1c1ccc(Cl)cc1Cl)c1ccccc1Cl (relative stereo) [Compound 580]	3.27^[b]
O=C(N[C@@H]1C[C@@H]1c1ccc(Cl)cc1Cl)c1c(F)cccc1F (relative stereo) [Compound 581]	3.44^[b]
O=C(N[C@@H]1C[C@@H]1c1ccc(Cl)cc1Cl)c1sccc1I (relative stereo) [Compound 582]	3.78^[b]

Same assay, conditions: HPLC reversed phase, method [c] pH 7.8

Compound	logP
O=C(N[C@@H]1CCC[C@@H]1c1ccccc1F)c1ccc(I)s1 (relative stereo) [Compound 337]	3.58^[c];

Same assay, conditions: HPLC-MS, method [b]: pH 2.7, 0.1% formic acid / acetonitrile; read-out: log P^b)

Compound	chromatographic logP
O=C(N[C@@H]1C[C@]1(F)c1ccc(Cl)cc1)c1c(F)cccc1F (relative stereo) [Compound 750, rel-N-[(1R,2S)-2-(4-chlorophenyl)-2-fluorocyclopropyl]-2,6-difluorobenzamide]	2.69
